# *1 amine or outer side, *2 acyl side, *3 side chain or, on linkers, in order; H or OH if unused. Where a SMILES comes first, the peptide text is derived from it. Bridges are numbered along the chain shown (N, C = ends). [ ]: non-standard residue; d: D form. The star is where a group is joined. ξ: configuration not given here. X13 = O=C([C@H](Cc1ccc(-c2cc(F)cc(F)c2)cc1)N[*:1])[*:2]; Phe(3-CF3) = N[C@@H](Cc1cccc(C(F)(F)F)c1)C(=O)O; Ala(morpholin-4-yl) = N[C@@H](CN1CCOCC1)C(=O)O; Phe(4-COOH) = N[C@@H](Cc1ccc(C(=O)O)cc1)C(=O)O; Bip = N[C@@H](Cc1ccc(-c2ccccc2)cc1)C(=O)O; Phe(3-Me) = Cc1cccc(C[C@H](N)C(=O)O)c1; γGlu = O=C(O)[C@H](CCC(=O)[*:2])N[*:1]; Abu(3S-NH2) = C[C@H](N)[C@H](N)C(=O)O; NH(CH2)12COOH = O=C(O)CCCCCCCCCCCCN*; Val(3-OH) = CC(C)(O)[C@H](N)C(=O)O; NMeR = CN[C@@H](CCCNC(=N)N)C(=O)O; 4Pal = N[C@@H](Cc1ccncc1)C(=O)O; 3Thi = N[C@@H](Cc1ccsc1)C(=O)O; Cha = N[C@@H](CC1CCCCC1)C(=O)O; Thr(3ξ) = CC(O)[C@H](N)C(=O)O; Carboxymethyl = O=C(O)C*; NMeA = CN[C@@H](C)C(=O)O; Orn = NCCC[C@H](N)C(=O)O; Aun = NCCCCCCCCCCC(=O)O; Dab = NCC[C@H](N)C(=O)O; AEEA = NCCOCCOCC(=O)O; ξC = NC(CS)C(=O)O
# Molecular target: T1, PD-1/PD-L1 interaction (PE-labeled human PD-L1-Ig binding to Jurkat cell line over-expressing human PD-1) (Homo sapiens, UniProt Q15116)
# T1 construct: expressed in transfected cells; host or cells: Jurkat
# Assay: Jurkat-PD-1 Cell Binding High-Content Screening Assay (CBA)
# Settings: Jurkat-hPD-1 cells, PE-labeled PD-L1-Ig 20 nM final; read-out: Jurkat HPD1 PDL1 IC50
# Method in brief: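 Cells 8×10^3/well, DMEM + 10% FCS; cpd 2 h, 37 °C; PE–PD-L1-Ig 20 nM final, 1 h; PFA fix + Hoechst 33342, 3× dPBS wash; high-content imager.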
# T1 sequence (Q15116 25-288): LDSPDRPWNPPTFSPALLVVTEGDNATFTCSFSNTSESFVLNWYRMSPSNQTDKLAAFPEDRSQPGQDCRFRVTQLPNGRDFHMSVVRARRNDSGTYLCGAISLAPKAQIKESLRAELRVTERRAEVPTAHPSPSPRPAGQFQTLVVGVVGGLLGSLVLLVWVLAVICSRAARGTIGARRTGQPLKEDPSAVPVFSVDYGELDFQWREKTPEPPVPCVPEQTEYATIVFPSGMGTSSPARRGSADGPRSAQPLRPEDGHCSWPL
row,SMILES,IC50 [µM]
1,CC(C)C[C@H]1NC(=O)[C@H](C)N(C)C(=O)[C@H](CCC(N)=O)NC(=O)[C@H](Cc2ccc(-c3ccccc3)cc2)NC(=O)[C@H](Cc2ccc(C(=O)O)cc2)NC(=O)[C@H](Cc2cccc(C(F)(F)F)c2)NC(=O)[C@H](CC(=O)O)NC(=O)[C@H](Cc2ccc(OCC(=O)O)cc2)NC(=O)[C@H]([C@H](C)N)NC(=O)CSC[C@@H](C(=O)N[C@@H](CCN)C(=O)NCCOCCOCC(=O)N[C@@H](CCC(=O)NCCOCCOCC(=O)NCCCCCCCCCCCCC(=O)O)C(=O)O)NC(=O)[C@H](Cc2c[nH]cn2)NC(=O)[C@H](C(C)(C)O)NC(=O)[C@H](CC2CCCCC2)NC(=O)[C@H](CCN)NC1=O [Example 1203] ({CH2CO}-[Abu(3S-NH2)]Y(Carboxymethyl)D[Phe(3-CF3)][Phe(4-COOH)][Bip]Q[NMeA][dL][Dab][Cha][Val(3-OH)]HC[Dab][AEEA][γGlu][AEEA]-{NH(CH2)12COOH}; thioether N-14),0.0215
2,CC(C)C[C@@H]1NC(=O)[C@H](Cc2c[nH]c3ccccc23)NC(=O)[C@H](CC(=O)O)NC(=O)[C@H](Cc2ccc(C(=O)O)cc2)NC(=O)[C@H](Cc2ccc(OCC(=O)O)cc2)NC(=O)CSC[C@@H](C(=O)N[C@@H](CCCN)C(=O)NCCOCCOCC(=O)NCCCCCCCCCCC(=O)O)NC(=O)[C@@H](CO)NC(=O)[C@H](C(C)C)NC(=O)[C@H](CC2CCCCC2)NC(=O)[C@H](CCN)NC(=O)[C@@H](CC(C)C)NC(=O)[C@H](C)N(C)C(=O)[C@H](C(C)C)NC(=O)[C@H](Cc2ccc(-c3ccccc3)cc2)NC1=O [Example 1242] ({CH2CO}-Y(Carboxymethyl)[Phe(4-COOH)]DWL[Bip]V[NMeA][dL][Dab][Cha]V[dS]C[Orn][AEEA][Aun]-OH; thioether N-14),0.0198
3,CC(C)C[C@H]1NC(=O)[C@H](C)N(C)C(=O)[C@H](CCC(N)=O)NC(=O)[C@H](Cc2ccc(-c3ccccc3)cc2)NC(=O)[C@H](Cc2ccc(C(=O)O)cc2)NC(=O)[C@H](Cc2cccc(C(F)(F)F)c2)NC(=O)[C@H](CC(=O)O)NC(=O)[C@H](Cc2ccc(OCC(=O)O)cc2)NC(=O)[C@H](CN2CCOCC2)NC(=O)CSC[C@@H](C(=O)N[C@@H](CCN)C(=O)NCCCCCCCCCCCCC(=O)O)NC(=O)[C@H](CCC(=O)O)NC(=O)[C@H](C(C)C)NC(=O)[C@H](CC2CCCCC2)NC(=O)[C@H](CCN)NC1=O [Example 1151] ({CH2CO}-[Ala(morpholin-4-yl)]Y(Carboxymethyl)D[Phe(3-CF3)][Phe(4-COOH)][Bip]Q[NMeA][dL][Dab][Cha]VEC[Dab]-{NH(CH2)12COOH}; thioether N-14),0.0061
4,CC(C)C[C@@H]1NC(=O)[C@H](Cc2c[nH]c3ccccc23)NC(=O)[C@H](CC(=O)O)NC(=O)[C@H](Cc2ccncc2)NC(=O)[C@H](Cc2ccc(OCC(=O)O)cc2)NC(=O)CSC[C@@H](C(=O)N[C@@H](CCN)C(=O)NCCCCCCCCCCC(=O)O)NC(=O)[C@H](CCCN)NC(=O)[C@H](C(C)C)NC(=O)[C@H](CC2CCCCC2)NC(=O)[C@H](CCN)NC(=O)[C@@H](CC(C)C)NC(=O)[C@H](C)N(C)C(=O)[C@H](C(C)C)NC(=O)[C@H](Cc2ccc(-c3ccccc3)cc2)NC1=O [Example 1210] ({CH2CO}-Y(Carboxymethyl)[4Pal]DWL[Bip]V[NMeA][dL][Dab][Cha]V[Orn]C[Dab][Aun]-OH; thioether N-14),0.0094
5,Cc1cccc(C[C@@H]2NC(=O)[C@H](CC(=O)O)NC(=O)[C@H](Cc3ccc(OCC(=O)O)cc3)NC(=O)[C@H](C(C)O)NC(=O)CSC[C@@H](C(=O)N(C)[C@@H](CCCNC(=N)N)C(=O)NCCCCCCCCCCC(=O)O)NC(=O)[C@H](CO)NC(=O)[C@H](C(C)C)NC(=O)[C@H](CC3CCCCC3)NC(=O)[C@H](CCN)NC(=O)[C@@H](CC(C)C)NC(=O)[C@H](C)N(C)C(=O)[C@H](C(C)C)NC(=O)[C@H](Cc3ccc(-c4ccccc4)cc3)NC(=O)[C@H](C(C)C)NC2=O)c1 (stereo partly drawn) [Example 2301] ({CH2CO}-[Thr(3ξ)]Y(Carboxymethyl)D[Phe(3-Me)]V[Bip]V[NMeA][dL][Dab][Cha]VSC[NMeR][Aun]-OH; thioether N-14),0.151
6,Cc1cccc(C[C@@H]2NC(=O)[C@H](CC(=O)O)NC(=O)[C@H](Cc3ccc(OCC(=O)O)cc3)NC(=O)[C@H]([C@@H](C)O)NC(=O)CSC[C@@H](C(=O)N[C@@H](CCN)C(=O)NCCCCCCCCCCC(=O)O)NC(=O)[C@H]([C@@H](C)O)NC(=O)[C@H](C(C)C)NC(=O)[C@H](CC3CCCCC3)NC(=O)[C@H](CCN)NC(=O)[C@@H](CC(C)C)NC(=O)[C@H](C)N(C)C(=O)[C@H](Cc3ccc(OCC(=O)O)cc3)NC(=O)[C@H](Cc3ccc(-c4cc(F)cc(F)c4)cc3)NC(=O)[C@H](Cc3ccc(C(=O)O)cc3)NC2=O)c1 [Example 1234] ({CH2CO}-TY(Carboxymethyl)D[Phe(3-Me)][Phe(4-COOH)][X13]Y(Carboxymethyl)[NMeA][dL][Dab][Cha]VTC[Dab][Aun]-OH; thioether N-14),0.0316

# Same assay, conditions: PE-labeled PD-L1-Ig 20 nM final, Jurkat-hPD-1 cells; read-out: Jurkat HPD1 PDL1 IC50
row,SMILES,IC50 [µM]
1,CC(C)C[C@@H]1NC(=O)[C@H](Cc2c[nH]c3ccccc23)NC(=O)[C@H](CC(=O)O)NC(=O)[C@H](Cc2ccc(OCC(=O)O)cc2)NC(=O)[C@H](Cc2ccsc2)NC(=O)CSC[C@@H](C(=O)N[C@@H](CCN)C(=O)NCCOCCOCC(=O)NCCCCCCCCCCC(=O)O)NC(=O)[C@H](CCC(=O)O)NC(=O)[C@H](C(C)(C)O)NC(=O)[C@H](CC2CCCCC2)NC(=O)[C@H](CCN)NC(=O)[C@@H](CC(C)C)NC(=O)[C@H](C)N(C)C(=O)[C@H](CCC(N)=O)NC(=O)[C@H](Cc2ccc(-c3ccccc3)cc2)NC1=O [Example 2504] ({CH2CO}-[3Thi]Y(Carboxymethyl)DWL[Bip]Q[NMeA][dL][Dab][Cha][Val(3-OH)]EC[Dab][AEEA][Aun]-OH; thioether N-14),0.0132
2,Cc1cccc(C[C@@H]2NC(=O)[C@H](CC(=O)O)NC(=O)[C@H](Cc3ccc(C(=O)O)cc3)NC(=O)[C@H](C(C)O)NC(=O)CSCC(C(=O)N[C@@H](CCN)C(=O)NCCCCCCCCCCCCC(=O)O)NC(=O)[C@H](CO)NC(=O)[C@H](C(C)(C)O)NC(=O)[C@H](CC3CCCCC3)NC(=O)[C@H](CCN)NC(=O)[C@@H](CC(C)C)NC(=O)[C@H](C)N(C)C(=O)[C@H](CCCNC(=N)N)NC(=O)[C@H](Cc3ccc(-c4ccccc4)cc3)NC(=O)[C@H](Cc3ccc(O)cc3)NC2=O)c1 (stereo partly drawn) [Example 2643] ({CH2CO}-[Thr(3ξ)][Phe(4-COOH)]D[Phe(3-Me)]Y[Bip]R[NMeA][dL][Dab][Cha][Val(3-OH)]S[ξC][Dab]-{NH(CH2)12COOH}; thioether N-14),0.0399
3,Cc1cccc(C[C@@H]2NC(=O)[C@H](CC(=O)O)NC(=O)[C@H](Cc3ccc(OCC(=O)O)cc3)NC(=O)[C@H](C(C)O)NC(=O)CSC[C@@H](C(=O)N[C@@H](CCN)C(=O)NCCOCCOCC(=O)NCCCCCCCCCCC(=O)O)NC(=O)[C@H](CC(=O)O)NC(=O)[C@H](C(C)C)NC(=O)[C@H](CC3CCCCC3)NC(=O)[C@H](CCN)NC(=O)[C@@H](CC(C)C)NC(=O)[C@H](C)N(C)C(=O)[C@H](Cc3ccc(OCC(=O)O)cc3)NC(=O)[C@H](Cc3ccc(-c4ccccc4)cc3)NC(=O)[C@H](Cc3ccc(OCC(=O)O)cc3)NC2=O)c1 (stereo partly drawn) [Example 2558] ({CH2CO}-[Thr(3ξ)]Y(Carboxymethyl)D[Phe(3-Me)]Y(Carboxymethyl)[Bip]Y(Carboxymethyl)[NMeA][dL][Dab][Cha]VDC[Dab][AEEA][Aun]-OH; thioether N-14),0.0116

# From US20260070945A1, “MACROCYCLIC IMMUNOMODULATORS” (Bristol-Myers Squibb Company, priority 2022, published 2026)
